Laboratory results reported in PMC10960472 (Veterinary Research, 2024).
In brackets after ≈: the same amount, converted by molar mass. Like-named read-outs stand apart in the source and are kept apart here. No end group written: not given here.

What was measured:
E. coli RS218 [1] = test: microbe, parasite or virus in culture; conditions: Escherichia coli; for MBC: RS218, read-out: MBC, E. coli RS218, colony counting on LB agar from wells without visible growth; for MIC: RS218, read-out: MIC, E. coli RS218, MHB microdilution, 16-20 h at 37 °C, triplicate, lowest concentration inhibiting visual growth
E. coli PCN033 [2] = test: microbe, parasite or virus in culture; conditions: Escherichia coli; for MIC: PCN033, read-out: MIC, E. coli PCN033, MHB microdilution, 16-20 h at 37 °C, triplicate, lowest concentration inhibiting visual growth; for MBC: PCN033, read-out: MBC, E. coli PCN033, colony counting on LB agar from wells without visible growth
E. coli RS218 [3] = tested on: E. coli RS218
E. coli PCN033 [4] = tested on: E. coli PCN033
PCN033 and RS218 = test: MIC and MBC, summary over both strains; format: cell-based; conditions: Escherichia coli; for MBC: read-out: MBCs against PCN033 and RS218; for MIC: read-out: MICs against PCN033 and RS218
PCN033 [5] = test: Time-kill curve assay; format: cell-based, Escherichia coli; conditions: sub-MBC: PMAP-36 1/4 MBC, tetracycline 1/16 MBC, gentamicin 1/8 MBC, 37 °C
PCN033 [6] = test: Mouse model of systemic infection with PCN033; format: in vivo; conditions: C57BL/6 mice, 1 × 10^7 CFU PCN033 i.p., 30 mg/kg tetracycline i.p. 2 h after infection, n = 10/group
Procedure: Female C57BL/6 mice (6–8 weeks old) were obtained from Chongqing Lepitt Biotechnology Co., Ltd. This study was approved by the Institutional Animal Care and Use Committee (IACUC) of Southwest University, Chongqing, China (IACUC-20221022-18). […] Afterwards, different assays were performed as described below.
For the generation of survival curves, mice (n = 10/group) were monitored every 6 h until 72 h post-infection. Statistical analysis was conducted by the log rank (Mantel‒Cox) test in GraphPad Prism 8.0 software.
Mice (n = 5/group) were euthanized at 12 h post-infection. Then, organs (spleen, liver, and lung), blood and peritoneal lavage fluid (PLF) were collected and homogenized to determine the bacterial load via serial tenfold dilutions, plating on LB agar plates, and incubation at 37 °C overnight.
For histopathological observation, mice (n = 3/group) were euthanized at 12 h post-infection. Then, the lung tissues were fixed with 10% formaldehyde for over one week and embedded in paraffin for histological analysis.
For cytokine detection, the mice (n = 3/group) were euthanized at 12 h post-infection. Then, the expression of inflammatory cytokines (IL-1α, IL-1β, IL-6, IL-12 and TNF-α) in the lungs, liver, spleen, and PLF and the expression of chemokines (CXCL1 and CXCL2) in the PLF were determined using ELISA kits. […]

PCN033 [7] = format: cell-based, Escherichia coli
PCN033 [8] = test: Scanning electron microscopy of treated bacteria; format: cell-based, Escherichia coli; conditions: tetracycline 1/16 MBC, PMAP-36 1/4 MBC, alone or combined, MHB 37 °C
[9] = tested on: monocytes and macrophages in the PLF; test: Flow cytometry of immune cells in peritoneal lavage fluid of infected mice; format: in vivo, mouse; conditions: 12 h post-infection, flow cytometry F4/80 and Gr-1, n = 3/group
Procedure: Mice were infected and treated with the test compounds as described above. After 12 h of infection, PLF was collected with 2 mL of sterile PBS, and the cells were centrifuged at 1800 rpm for 3 min. Then, the cells were blocked with 1 mL of 2% bovine serum albumin (BSA) in PBS for 30 min. An anti-mouse CD16/32 antibody (1:50) (BioLegend, CA, USA) was used to block nonspecific antibody binding in 0.5% BSA buffer for 30 min at 4 °C. Next, the cells were stained with PE-conjugated anti-mouse F4/80 antibody (1:50) (BioLegend, CA, USA) and FITC-conjugated anti-mouse Ly-6G/Ly-6C (Gr-1) antibody (1:200) (BioLegend, CA, USA) in 0.5% BSA for 30 min at 4 °C. Afterwards, the cells were washed twice with 150 μL of 2% BSA and analysed using flow cytometry.

E. coli PCN033 [10] = test: Checkerboard assay, fractional bactericidal concentration index; format: cell-based, Escherichia coli; conditions: PMAP-36 with tetracycline, against multidrug-resistant porcine ExPEC
[11] = MHB microdilution, 16-20 h at 37 °C, triplicate, lowest concentration inhibiting visual growth
[12] = colony counting on LB agar from wells without visible growth

| Molecule | MIC (E. coli RS218 [1]) [µM] | MIC (E. coli PCN033 [2]) [µM] | MIC, E. coli RS218 (E. coli RS218 [3]; RS218) [µM] | MIC, E. coli PCN033 (E. coli PCN033 [4]; PCN033) [µM] | MBC (E. coli RS218 [1]) [µM] | MBC, E. coli RS218 (E. coli RS218 [3]; RS218) [µM] | MBC, E. coli PCN033 (E. coli PCN033 [4]; PCN033) [µM] | MIC, E. coli PCN033 (E. coli PCN033 [4]; [11]) | MBC, E. coli PCN033 (E. coli PCN033 [4]; [12]) | other results |
| --- | --- | --- | --- | --- | --- | --- | --- | --- | --- | --- |
| [H]/N=C(/N)N[C@H]1[C@H](O)[C@@H](O)[C@H](O[C@@H]2O[C@@H](C)[C@](O)(C=O)[C@H]2O[C@@H]2O[C@@H](CO)[C@H](O)[C@@H](O)[C@@H]2NC)[C@@H](N/C(N)=N\[H])[C@@H]1O [Streptomycin, streptomycin] | 41000 (≈ 23800 µg/mL) | > 160 |  |  | > 41000 |  |  |  |  |  |
| PIRNWWIRIWEWLNGIRKRLRQRSPFYVRGHLNVTSTPQP [CATH-B1] |  |  | > 40 | > 40 |  | > 40 | > 40 |  |  |  |
| CO/N=C(\C(=O)N[C@@H]1C(=O)N2C(C(=O)O)=C(COC(C)=O)CS[C@H]12)c1csc(N)n1 [Cefotaxime, cefotaxime] | < 0.625 | < 0.625 |  |  | < 0.625 |  |  |  |  | MBC (PCN033 and RS218): < 0.625 µM; MIC (PCN033 and RS218): < 0.625 µM; MBC (E. coli PCN033 [2]): < 0.625 µM |
| CNC(C)C1CCC(N)C(OC2C(N)CC(N)C(OC3OCC(C)(O)C(NC)C3O)C2O)O1 (stereo not shown) [Gentamicin, gentamicin] | 2.5 to 10 (≈ 1.19 to 4.78 µg/mL) | > 160 |  |  | 5 to 20 (≈ 2.39 to 9.55 µg/mL) |  |  | 320 µM (≈ 153 µg/mL) | 1280 µM (≈ 611 µg/mL) | MIC, E. coli RS218 (E. coli RS218 [3]; [11]): 2.5 µM (≈ 1.19 µg/mL); MBC, E. coli RS218 (E. coli RS218 [3]; [12]): 5 µM (≈ 2.39 µg/mL); MBC (E. coli PCN033 [2]): > 1280 µM; bactericidal activity within 120 min, agent alone (PCN033 [5]): did not show obvious bactericidal activity |
| CN(C)[C@@H]1C(O)=C(C(N)=O)C(=O)[C@@]2(O)C(O)=C3C(=O)c4c(O)cccc4[C@@](C)(O)[C@H]3C[C@@H]12 [Tetracycline, tetracycline] | 2.5 (≈ 1.11 µg/mL) | 160 (≈ 71.1 µg/mL) |  |  | 5 (≈ 2.22 µg/mL) |  |  |  |  | time within which all treated mice died (PCN033 [6]): ≤ 24 h; increase of the MIC of tetracycline, 10th generation (PCN033 [7]): 1.5 fold; change of the MIC of tetracycline after 30 generations (PCN033 [7]; PCN033 grown at sub-MIC: tetracycline 1/4 MIC, PMAP-36 1/4 MIC, or 1/8 MIC + 1/8 MIC, normalised to first generation): threefold; MBC (PCN033 and RS218): 5 to 320 µM (≈ 2.22 to 142 µg/mL); MIC (PCN033 and RS218): 2.5 to 320 µM (≈ 1.11 to 142 µg/mL); cell morphology under SEM (PCN033 [8]): slight cell shrinkage; number of monocytes and macrophages in the PLF [9]: only slightly increased; decrease of MBC when used in combination (E. coli PCN033 [10]): 16 fold; MBC (E. coli PCN033 [2]): 160 µM (≈ 71.1 µg/mL) |
| GLLRKGGEKIGEKLKKIGQKIKNFFQKLVPQPEQ [CRAMP] |  |  |  |  |  |  |  | 10 µM | 20 µM | MIC, E. coli RS218 (E. coli RS218 [3]; [11]): 5 µM; MBC, E. coli RS218 (E. coli RS218 [3]; [12]): 20 µM |
| CC1(C)S[C@@H]2[C@H](NC(=O)[C@H](N)c3ccccc3)C(=O)N2[C@H]1C(=O)O [Ampicillin, ampicillin] | 2.5 to 10 (≈ 0.874 to 3.49 µg/mL) |  |  |  | 5 to 20 (≈ 1.75 to 6.99 µg/mL) |  |  | 20,480 μM | 40,960 μM | MIC, E. coli RS218 (E. coli RS218 [3]; [11]): 5 µM (≈ 1.75 µg/mL); MBC, E. coli RS218 (E. coli RS218 [3]; [12]): 10 µM (≈ 3.49 µg/mL); MIC, E. coli PCN033 (E. coli PCN033 [4]; MHB microdilution, 16-20 h at 37 °C, triplicate, lowest concentration inhibiting visual growth, listed as ampicillin): greater than 160 μM; MBC, E. coli PCN033 (E. coli PCN033 [4]; colony counting on LB agar from wells without visible growth, listed as ampicillin): greater than 1280 μM |
| Cc1onc(-c2ccccc2)c1C(=O)N[C@@H]1C(=O)N2[C@@H]1SC(C)(C)[C@@H]2C(=O)O [Oxacillin, oxacillin] | 320 (≈ 128 µg/mL) |  |  |  | 1280 (≈ 514 µg/mL) |  |  | 5120 µM (≈ 2060 µg/mL) | 10,240 μM | MIC, E. coli PCN033 (E. coli PCN033 [4]; MHB microdilution, 16-20 h at 37 °C, triplicate, lowest concentration inhibiting visual growth, listed as oxacillin): greater than 160 μM |

The next lines start with results.

| MIC (E. coli RS218 [1]) [µM] | MIC (E. coli PCN033 [2]) [µM] | MIC, E. coli RS218 (E. coli RS218 [3]; RS218) [µM] | MIC, E. coli PCN033 (E. coli PCN033 [4]; PCN033) [µM] | Molecule | MBC (E. coli RS218 [1]) [µM] | MBC, E. coli RS218 (E. coli RS218 [3]; RS218) [µM] | MBC, E. coli PCN033 (E. coli PCN033 [4]; PCN033) [µM] | MIC, E. coli PCN033 (E. coli PCN033 [4]; [11]) | MBC, E. coli PCN033 (E. coli PCN033 [4]; [12]) | other results |
| --- | --- | --- | --- | --- | --- | --- | --- | --- | --- | --- |
|  |  | 5 | 10 | RFGRFLRKIRRFRPKVTITIQGSARF [CATH-2] |  | 10 | 20 |  |  |  |
|  |  | 5 | 10 | RVKRFWPLVPVAINTVAAGINLYKAIRRK [CATH-3] |  | 10 | 20 |  |  |  |
|  |  | 2.5 | 2.5 | GRFRRLRKKTRKRLKKIGKVLKWIPPIVGSIPLGCG [PMAP-36, porcine myeloid antimicrobial peptide 36] |  | 5 | 10 |  |  |  |
|  |  | 2.5 | 5 | RRRPRPPYLPRPRPPPFFPPRLPPRIPPGFPPRFPPRFP [PR-39] |  | 5 | 10 |  |  |  |
